Drawing on US20100311714A1, “1H-IMIDAZO[4,5-c]QUINOLINONE COMPOUNDS” (priority 2009, published 2010), this text covers IC50 for 25 molecules.

Molecules are shown by their SMILES.

Test [1] deals with S6 Ribosomal Protein phosphorylation Ser235/236 in TSC1 null mouse embryo fibroblast (MEF) cells. Briefly: Reverse protein array, S6 Ribosomal Protein phosphorylation in TSC1 null MEF cells. The note with it: 1 h, TSC1-/- MEFs, 60 minutes, read-out: p-S6 IC50. The class given is cell-based. The method in brief: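 Phospho-S6 (Ser235/236) was quantified by reverse protein array of cell lysates with a phospho-specific primary antibody. […]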

Test [2] relates to PKB Ser473 phosphorylation in Rat1-myr-HA-p110 delta cells. Briefly: Reverse protein array, PKB Ser473 phosphorylation in Rat1-myr-HA-p110 delta cells. The class given is cell-based. The note with it: Rattus norvegicus, 0.5 h, 30 minutes compound incubation, read-out: p-PKB/IC50_delta.

As for `CNc1ncc(-c2ccc3ncc4c(c3c2)n(-c2ccc(N(C)CCOC)nc2C)c(=O)n4C)cn1` [Example 15.2, 1-{6-[(2-Methoxy-ethyl)-methyl-amino]-2-methyl-pyridin-3-yl}-3-methyl-8-(2-methylamino-pyrimidin-5-yl)-1,3-dihydro-imidazo[4,5-c]quinolin-2-one], the IC50 was determined as 7 nM in test [1] and 53.3 nM in test [2].

As for `CCOc1ccc(-c2ccc3ncc4c(c3c2)n(-c2ccc(N(C)CCOC)nc2C)c(=O)n4C)cn1` [Example 15.3, 8-(6-Ethoxy-pyridin-3-yl)-1-{6-[(2-methoxy-ethyl)-methyl-amino]-2-methyl-pyridin-3-yl}-3-methyl-1,3-dihydro-imidazo[4,5-c]quinolin-2-one], the IC50 in test [1] is 130 nM; in test [2] it was 212 nM.

`CNc1ccc(-c2ccc3ncc4c(c3c2)n(-c2ccc(N(C)CCOC)nc2C)c(=O)n4C)cn1` [Example 15.4, 1-{6-[(2-Methoxy-ethyl)-methyl-amino]-2-methyl-pyridin-3-yl}-3-methyl-8-(6-methylamino-pyridin-3-yl)-1,3-dihydro-imidazo[4,5-c]quinolin-2-one]: the IC50 in test [1] came to 3 nM; in test [2], 31.3 nM.

Take `COCCN(C)c1ccc(-n2c(=O)n(C)c3cnc4ccc(-c5cnc(N(C)C)nc5)cc4c32)c(C)n1` [Example 15.5, 8-(2-Dimethylamino-pyrimidin-5-yl)-1-{6-[(2-methoxy-ethyl)-methyl-amino]-2-methyl-pyridin-3-yl}-3-methyl-1,3-dihydro-imidazo[4,5-c]quinolin-2-one]: the IC50 is 19 nM in test [1] and 229 nM in test [2].

In the case of `CCNc1cc(-c2ccc3ncc4c(c3c2)n(-c2ccc(N(C)CCOC)nc2C)c(=O)n4C)cnc1C` [Example 15.6, 8-(5-Ethylamino-6-methyl-pyridin-3-yl)-1-{6-[(2-methoxy-ethyl)-methyl-amino]-2-methyl-pyridin-3-yl}-3-methyl-1,3-dihydro-imidazo[4,5-c]quinolin-2-one], the IC50 worked out at 3 nM in test [1] and 6.8 nM in test [2].

`COCCN(C)c1ccc(-n2c(=O)n(C)c3cnc4ccc(-c5cnc6c(ccn6C)c5)cc4c32)c(C)n1` [Example 15.7, 1-{6-[(2-Methoxy-ethyl)-methyl-amino]-2-methyl-pyridin-3-yl}-3-methyl-8-(1-methyl-1H-pyrrolo[2,3-b]pyridin-5-yl)-1,3-dihydro-imidazo[4,5-c]quinolin-2-one]: the IC50 came to 2 nM in test [1] and 44.3 nM in test [2].

`COCCN(C)c1ccc(-n2c(=O)n(C)c3cnc4ccc(-c5cncc(N)c5)cc4c32)c(C)n1` [Example 15.8, 8-(5-Amino-pyridin-3-yl)-1-{6-[(2-methoxy-ethyl)-methyl-amino]-2-methyl-pyridin-3-yl}-3-methyl-1,3-dihydro-imidazo[4,5-c]quinolin-2-one]: the results for the IC50 in test [1] and in test [2] were 6 nM and 59.7 nM, respectively.

For `Cc1cc(F)ncc1-n1c(=O)n(C)c2cnc3ccc(-c4cnc(N)c(C(F)(F)F)c4)cc3c21` [Example 16.1, 8-(6-Amino-5-trifluoromethyl-pyridin-3-yl)-1-(6-fluoro-4-methyl-pyridin-3-yl)-3-methyl-1,3-dihydro-imidazo[4,5-c]quinolin-2-one], the IC50 in test [1] was under 0.457 nM; in test [2], 42.9 nM.

In the case of `CCNc1cc(-c2ccc3ncc4c(c3c2)n(-c2cnc(F)cc2C)c(=O)n4C)cnc1C` [Example 16.2, 8-(5-Ethylamino-6-methyl-pyridin-3-yl)-1-(6-fluoro-4-methyl-pyridin-3-yl)-3-methyl-1,3-dihydro-imidazo[4,5-c]quinolin-2-one], the IC50 in test [1] is 6 nM; in test [2], 63.3 nM.

Turning to `CNc1ncc(-c2ccc3ncc4c(c3c2)n(-c2cnc(F)cc2C)c(=O)n4C)cn1` [Example 16.3, 1-(6-Fluoro-4-methyl-pyridin-3-yl)-3-methyl-8-(2-methylamino-pyrimidin-5-yl)-1,3-dihydro-imidazo[4,5-c]quinolin-2-one], the IC50 in test [1] was determined as 22 nM; in test [2], 304 nM.

Consider `CNc1ccc(-c2ccc3ncc4c(c3c2)n(-c2cnc(F)cc2C)c(=O)n4C)cn1` [Example 16.4, 1-(6-Fluoro-4-methyl-pyridin-3-yl)-3-methyl-8-(6-methylamino-pyridin-3-yl)-1,3-dihydro-imidazo[4,5-c]quinolin-2-one], for which the IC50 in test [1] worked out at 5 nM; in test [2] it was 408 nM.

For the molecule `Cc1cc(F)ncc1-n1c(=O)n(C)c2cnc3ccc(-c4cnc5c(ccn5C)c4)cc3c21` [Example 16.5, 1-(6-Fluoro-4-methyl-pyridin-3-yl)-3-methyl-8-(1-methyl-1H-pyrrolo[2,3-b]pyridin-5-yl)-1,3-dihydro-imidazo[4,5-c]quinolin-2-one], the figures for the IC50 in test [1] and in test [2] were 12.6 nM and 407 nM, respectively.

Consider `CCOc1ccc(-c2ccc3ncc4c(c3c2)n(-c2cncc(C)c2)c(=O)n4C)cn1` [Example 17.1, 8-(6-Ethoxy-pyridin-3-yl)-3-methyl-1-(5-methyl-pyridin-3-yl)-1,3-dihydro-imidazo[4,5-c]quinolin-2-one], for which the results for the IC50 in test [1] and in test [2] were 29 nM and 412 nM, respectively.

Take `CCNc1cc(-c2ccc3ncc4c(c3c2)n(-c2ccc(OC)nc2Cl)c(=O)n4C)cnc1C` [Example 18.1, 1-(2-Chloro-6-methoxy-pyridin-3-yl)-8-(5-ethylamino-6-methyl-pyridin-3-yl)-3-methyl-1,3-dihydro-imidazo[4,5-c]quinolin-2-one]: the IC50 in test [1] was under 0.457 nM; in test [2] it was under 4.57 nM.

In the case of `COc1ccc(-n2c(=O)n(C)c3cnc4ccc(-c5cnc(N(C)C)nc5)cc4c32)c(Cl)n1` [Example 18.3, 1-(2-Chloro-6-methoxy-pyridin-3-yl)-8-(2-dimethylamino-pyrimidin-5-yl)-3-methyl-1,3-dihydro-imidazo[4,5-c]quinolin-2-one], the results for the IC50 in test [1] and in test [2] were 4.3 nM and 90.7 nM, respectively.

In the case of `CNc1cc(-c2ccc3ncc4c(c3c2)n(-c2ccc(N(C)C)nc2C)c(=O)n4C)cnc1C` [Example 19.2, 1-(6-Dimethylamino-2-methyl-pyridin-3-yl)-3-methyl-8-(6-methyl-5-methylamino-pyridin-3-yl)-1,3-dihydro-imidazo[4,5-c]quinolin-2-one], the IC50 is 1.1 nM in test [1] and under 4.57 nM in test [2].

As to `CCOc1ccc(-c2ccc3ncc4c(c3c2)n(-c2ccc(N(C)C)nc2C)c(=O)n4C)cn1` [Example 19.3, 1-(6-Dimethylamino-2-methyl-pyridin-3-yl)-8-(6-ethoxy-pyridin-3-yl)-3-methyl-1,3-dihydro-imidazo[4,5-c]quinolin-2-one], the IC50 in test [1] was 2 nM; in test [2] it was 74.7 nM.

For `COCC(=O)Nc1ccc(-n2c(=O)n(C)c3cnc4ccc(-c5cncc(N)c5)cc4c32)c(C)n1` [Example 20.1, N-{5-[8-(5-Amino-pyridin-3-yl)-3-methyl-2-oxo-2,3-dihydro-imidazo[4,5-c]quinolin-1-yl]-6-methyl-pyridin-2-yl}-2-methoxy-acetamide], the IC50 in test [1] was determined as 32 nM; in test [2] it was 194 nM.

As for `CCOc1ccc(-c2ccc3ncc4c(c3c2)n(-c2ccc(NC(=O)COC)nc2C)c(=O)n4C)cn1` [Example 20.2, N-{5-[8-(6-Ethoxy-pyridin-3-yl)-3-methyl-2-oxo-2,3-dihydro-imidazo[4,5-c]quinolin-1-yl]-6-methyl-pyridin-2-yl}-2-methoxy-acetamide], the IC50 in test [1] is 131 nM; in test [2], 326 nM.

Consider `CNc1ncc(-c2ccc3ncc4c(c3c2)n(-c2ccc(NC(=O)COC)nc2C)c(=O)n4C)cn1` [Example 20.3, 2-Methoxy-N-{6-methyl-5-[3-methyl-8-(2-methylamino-pyrimidin-5-yl)-2-oxo-2,3-dihydro-imidazo[4,5-c]quinolin-1-yl]-pyridin-2-yl}-acetamide], for which the IC50 in test [1] amounted to 44 nM; in test [2], 218 nM.

Take `CNc1ccc(-c2ccc3ncc4c(c3c2)n(-c2ccc(NC(=O)COC)nc2C)c(=O)n4C)cn1` [Example 20.4, 2-Methoxy-N-{6-methyl-5-[3-methyl-8-(6-methylamino-pyridin-3-yl)-2-oxo-2,3-dihydro-imidazo[4,5-c]quinolin-1-yl]-pyridin-2-yl}-acetamide]: the IC50 in test [1] stood at 63 nM; in test [2], 197 nM.

For the molecule `COCCOc1ccc(-n2c(=O)n(C)c3cnc4ccc(-c5cncc(N6CCC6)c5)cc4c32)c(C)n1` [Example 22.2, 8-(5-Azetidin-1-yl-pyridin-3-yl)-1-[6-(2-methoxy-ethoxy)-2-methyl-pyridin-3-yl]-3-methyl-1,3-dihydro-imidazo[4,5-c]quinolin-2-one], the IC50 in test [1] was 2 nM; in test [2] it was 83.9 nM.

Regarding `COCCOc1ccc(-n2c(=O)n(C)c3cnc4ccc(-c5cnc(COC)c(OC)c5)cc4c32)c(C)n1` [Example 22.3, 1-[6-(2-Methoxy-ethoxy)-2-methyl-pyridin-3-yl]-8-(5-methoxy-6-methoxymethyl-pyridin-3-yl)-3-methyl-1,3-dihydro-imidazo[4,5-c]quinolin-2-one], the results for the IC50 in test [1] and in test [2] were 15 nM and 210 nM, respectively.

For the molecule `Cc1nc(N2CC(F)(F)C2)ccc1-n1c(=O)n(C)c2cnc3ccc(-c4cncc(C(C)(C)O)c4)cc3c21` [Example 24.2, 1-[6-(3,3-Difluoro-azetidin-1-yl)-2-methyl-pyridin-3-yl]-8-[5-(1-hydroxy-1-methyl-ethyl)-pyridin-3-yl]-3-methyl-1,3-dihydro-imidazo[4,5-c]quinolin-2-one], the results for the IC50 in test [1] and in test [2] were 1 nM and 30 nM, respectively.

Regarding `CCNc1cc(-c2ccc3ncc4c(c3c2)n(-c2ccc(N3CC(F)(F)C3)nc2C)c(=O)n4C)cnc1CO` [Example 24.3, 1-[6-(3,3-Difluoro-azetidin-1-yl)-2-methyl-pyridin-3-yl]-8-(5-ethylamino-6-hydroxymethyl-pyridin-3-yl)-3-methyl-1,3-dihydro-imidazo[4,5-c]quinolin-2-one], the IC50 in test [1] was under 0.457 nM; in test [2], 8.1 nM.
